Several values for one entry are separate records, joined by “and”; a condition that tells them apart may be missing. Equal values may be shown once.
Columns and labels:
[1] = target: T1, EPHA6 (Homo sapiens, UniProt Q9UF33); conditions: 1 μM; Run 1, Run 2
T1 sequence (Q9UF33 23-1036): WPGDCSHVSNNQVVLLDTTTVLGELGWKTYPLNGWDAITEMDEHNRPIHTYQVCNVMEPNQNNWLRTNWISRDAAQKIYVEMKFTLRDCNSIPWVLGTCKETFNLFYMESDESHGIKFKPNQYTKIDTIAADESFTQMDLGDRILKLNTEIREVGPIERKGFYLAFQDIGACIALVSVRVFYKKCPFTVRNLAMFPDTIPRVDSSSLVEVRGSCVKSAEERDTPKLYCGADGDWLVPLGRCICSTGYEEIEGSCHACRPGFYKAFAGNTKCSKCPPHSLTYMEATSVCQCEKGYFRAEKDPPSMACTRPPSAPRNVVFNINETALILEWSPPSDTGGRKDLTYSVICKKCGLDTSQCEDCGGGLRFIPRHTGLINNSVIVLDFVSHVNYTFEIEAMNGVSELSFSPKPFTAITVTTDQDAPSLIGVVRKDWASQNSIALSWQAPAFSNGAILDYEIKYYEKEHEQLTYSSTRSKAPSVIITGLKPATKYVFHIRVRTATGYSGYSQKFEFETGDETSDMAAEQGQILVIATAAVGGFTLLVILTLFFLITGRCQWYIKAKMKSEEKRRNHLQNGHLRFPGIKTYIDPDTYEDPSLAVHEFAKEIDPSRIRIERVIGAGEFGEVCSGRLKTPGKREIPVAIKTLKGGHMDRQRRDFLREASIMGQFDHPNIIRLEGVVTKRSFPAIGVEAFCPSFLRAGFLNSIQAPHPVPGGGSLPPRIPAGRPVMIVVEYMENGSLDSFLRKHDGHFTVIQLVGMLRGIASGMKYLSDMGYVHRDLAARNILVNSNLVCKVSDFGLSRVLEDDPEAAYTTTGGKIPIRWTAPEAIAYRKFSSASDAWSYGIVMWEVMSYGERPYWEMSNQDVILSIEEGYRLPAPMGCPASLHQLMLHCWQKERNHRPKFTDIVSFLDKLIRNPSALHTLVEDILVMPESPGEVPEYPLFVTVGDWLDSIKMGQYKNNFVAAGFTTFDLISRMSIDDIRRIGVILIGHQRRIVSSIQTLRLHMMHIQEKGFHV

[2] = target: CK1d (Homo sapiens, UniProt P48730); test: biochemical; conditions: read-out: % enzyme activity, 1 μM; Run 1, Run 2
[3] = target: CYP2D6
[4] = target: FGFR3 (Homo sapiens, UniProt P22607); test: biochemical; conditions: read-out: % enzyme activity, 1 μM; Run 1, Run 2
[5] = target: STK32C/YANK3 (Homo sapiens, UniProt Q86UX6); conditions: 1 μM; Run 1, Run 2
[6] = tested on: TAOK1
[7] = target: WNK3 (Homo sapiens, UniProt Q9BYP7); test: biochemical; conditions: read-out: % enzyme activity, 1 μM; Run 1, Run 2
[8] = target: CDK17/cyclin Y (PCTK2) (Homo sapiens, UniProt Q00537); test: biochemical; conditions: read-out: % enzyme activity, 1 μM; Run 1, Run 2
[9] = target: MEK1 (Homo sapiens, UniProt Q02750); test: biochemical; conditions: read-out: % enzyme activity, 1 μM; Run 1, Run 2
[10] = target: TIE2/TEK (Homo sapiens, UniProt Q02763); conditions: 1 μM; Run 1, Run 2
[11] = target: ERBB4/HER4 (Homo sapiens, UniProt Q15303); test: biochemical; conditions: read-out: % enzyme activity, 1 μM; Run 1, Run 2
[12] = target: CDK1/cyclin A (Homo sapiens, UniProt P06493); test: biochemical; conditions: read-out: % enzyme activity, 1 μM; Run 1, Run 2
[13] = target: RSK3 (Homo sapiens, UniProt Q15349); conditions: 1 μM; Run 1, Run 2
[14] = target: CK1a1 (Homo sapiens, UniProt P48729); test: biochemical; conditions: read-out: % enzyme activity, 1 μM; Run 1, Run 2
[15] = target: T2, NEK11 (Homo sapiens, UniProt Q8NG66); test: biochemical; conditions: read-out: % enzyme activity, 1 μM; Run 1, Run 2
T2 sequence (Q8NG66 1-645): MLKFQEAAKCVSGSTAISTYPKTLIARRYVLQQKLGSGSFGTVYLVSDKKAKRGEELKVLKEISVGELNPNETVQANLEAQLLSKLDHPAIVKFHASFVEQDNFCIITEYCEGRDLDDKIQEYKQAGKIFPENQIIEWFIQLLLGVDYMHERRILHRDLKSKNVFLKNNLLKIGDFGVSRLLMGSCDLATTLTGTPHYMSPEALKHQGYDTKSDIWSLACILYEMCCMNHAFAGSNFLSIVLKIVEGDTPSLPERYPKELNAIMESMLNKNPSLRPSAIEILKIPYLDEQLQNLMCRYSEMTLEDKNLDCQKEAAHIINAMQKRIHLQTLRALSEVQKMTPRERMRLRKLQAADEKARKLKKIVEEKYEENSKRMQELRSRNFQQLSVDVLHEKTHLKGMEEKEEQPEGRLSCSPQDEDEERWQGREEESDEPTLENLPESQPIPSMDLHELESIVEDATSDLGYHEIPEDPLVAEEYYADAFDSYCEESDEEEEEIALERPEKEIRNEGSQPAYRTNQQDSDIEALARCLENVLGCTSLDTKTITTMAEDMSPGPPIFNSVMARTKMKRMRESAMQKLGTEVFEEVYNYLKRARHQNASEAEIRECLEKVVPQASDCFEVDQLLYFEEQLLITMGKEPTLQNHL

[16] = target: HPK1/MAP4K1 (Homo sapiens, UniProt Q92918); conditions: 1 μM; Run 1, Run 2
[17] = target: PKCtheta (Homo sapiens, UniProt Q04759); test: biochemical; conditions: read-out: % enzyme activity, 1 μM; Run 1, Run 2
[18] = target: SRMS (Homo sapiens, UniProt Q9H3Y6); test: biochemical; conditions: read-out: % enzyme activity, 1 μM; Run 1, Run 2
Sequence of SRMS (Q9H3Y6 whole entry): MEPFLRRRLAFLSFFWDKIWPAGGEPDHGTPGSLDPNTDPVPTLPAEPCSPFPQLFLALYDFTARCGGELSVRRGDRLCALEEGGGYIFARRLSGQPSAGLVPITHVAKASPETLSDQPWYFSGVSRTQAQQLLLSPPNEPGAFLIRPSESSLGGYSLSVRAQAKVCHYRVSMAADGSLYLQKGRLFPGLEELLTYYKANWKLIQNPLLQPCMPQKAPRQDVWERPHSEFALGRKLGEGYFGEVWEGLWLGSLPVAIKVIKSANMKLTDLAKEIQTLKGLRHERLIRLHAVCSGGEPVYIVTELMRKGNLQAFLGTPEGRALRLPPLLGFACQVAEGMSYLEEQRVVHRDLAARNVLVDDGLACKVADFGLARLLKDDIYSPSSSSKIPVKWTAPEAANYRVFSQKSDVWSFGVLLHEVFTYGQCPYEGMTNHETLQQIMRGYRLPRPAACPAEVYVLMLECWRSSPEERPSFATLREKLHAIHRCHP

Sequence of PKCtheta (Q04759 whole entry): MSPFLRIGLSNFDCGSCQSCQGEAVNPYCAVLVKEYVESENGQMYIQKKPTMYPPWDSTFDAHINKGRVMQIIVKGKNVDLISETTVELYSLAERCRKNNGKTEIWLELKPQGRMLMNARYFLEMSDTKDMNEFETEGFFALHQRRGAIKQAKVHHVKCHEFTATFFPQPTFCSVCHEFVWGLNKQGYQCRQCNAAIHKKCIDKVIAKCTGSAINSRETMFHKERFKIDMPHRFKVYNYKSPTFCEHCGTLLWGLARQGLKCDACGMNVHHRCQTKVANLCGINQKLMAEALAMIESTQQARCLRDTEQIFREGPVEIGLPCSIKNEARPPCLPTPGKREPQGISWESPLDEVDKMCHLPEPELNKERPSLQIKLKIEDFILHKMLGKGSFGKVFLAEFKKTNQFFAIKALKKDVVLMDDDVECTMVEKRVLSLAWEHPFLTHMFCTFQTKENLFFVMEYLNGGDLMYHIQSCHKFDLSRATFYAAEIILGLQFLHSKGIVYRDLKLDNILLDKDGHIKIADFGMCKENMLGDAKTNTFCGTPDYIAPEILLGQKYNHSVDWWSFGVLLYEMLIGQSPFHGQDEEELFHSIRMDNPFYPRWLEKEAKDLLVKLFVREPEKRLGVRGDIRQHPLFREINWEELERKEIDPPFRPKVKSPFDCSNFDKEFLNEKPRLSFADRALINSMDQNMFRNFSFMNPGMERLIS
Sequence of STK32C/YANK3 (Q86UX6 whole entry): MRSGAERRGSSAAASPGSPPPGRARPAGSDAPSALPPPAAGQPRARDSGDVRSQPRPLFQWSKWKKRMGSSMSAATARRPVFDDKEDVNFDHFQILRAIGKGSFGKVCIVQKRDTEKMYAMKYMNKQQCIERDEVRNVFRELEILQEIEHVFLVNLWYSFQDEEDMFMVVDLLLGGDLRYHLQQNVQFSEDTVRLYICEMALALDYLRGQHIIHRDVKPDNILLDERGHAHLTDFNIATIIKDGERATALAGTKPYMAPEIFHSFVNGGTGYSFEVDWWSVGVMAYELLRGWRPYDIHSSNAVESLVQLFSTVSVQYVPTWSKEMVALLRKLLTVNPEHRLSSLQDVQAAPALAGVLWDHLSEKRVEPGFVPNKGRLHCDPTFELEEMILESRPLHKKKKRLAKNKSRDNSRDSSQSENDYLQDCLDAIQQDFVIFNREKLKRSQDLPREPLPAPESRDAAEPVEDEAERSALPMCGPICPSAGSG
Sequence of HPK1/MAP4K1 (Q92918 whole entry): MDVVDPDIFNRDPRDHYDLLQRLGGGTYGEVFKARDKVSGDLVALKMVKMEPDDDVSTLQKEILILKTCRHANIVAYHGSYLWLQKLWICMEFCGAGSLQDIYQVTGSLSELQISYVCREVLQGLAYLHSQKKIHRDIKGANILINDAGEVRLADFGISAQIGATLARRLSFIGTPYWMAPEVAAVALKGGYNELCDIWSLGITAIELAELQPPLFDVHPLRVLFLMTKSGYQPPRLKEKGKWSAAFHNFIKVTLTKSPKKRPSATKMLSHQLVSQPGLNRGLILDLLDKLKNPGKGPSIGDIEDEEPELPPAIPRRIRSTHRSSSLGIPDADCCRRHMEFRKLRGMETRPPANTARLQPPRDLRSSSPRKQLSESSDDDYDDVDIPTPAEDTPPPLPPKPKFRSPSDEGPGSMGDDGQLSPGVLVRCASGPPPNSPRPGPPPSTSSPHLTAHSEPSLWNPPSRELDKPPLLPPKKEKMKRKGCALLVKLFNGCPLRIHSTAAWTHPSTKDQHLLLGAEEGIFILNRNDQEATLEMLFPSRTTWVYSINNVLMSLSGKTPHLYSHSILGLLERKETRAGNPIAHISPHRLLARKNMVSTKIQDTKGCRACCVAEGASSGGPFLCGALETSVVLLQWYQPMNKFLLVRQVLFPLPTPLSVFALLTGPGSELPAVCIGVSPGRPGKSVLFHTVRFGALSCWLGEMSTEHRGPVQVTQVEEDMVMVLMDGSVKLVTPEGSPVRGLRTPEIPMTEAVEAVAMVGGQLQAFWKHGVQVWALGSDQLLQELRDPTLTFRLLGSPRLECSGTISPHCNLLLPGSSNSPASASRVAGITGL
Sequence of WNK3 (Q9BYP7 whole entry, species assumed): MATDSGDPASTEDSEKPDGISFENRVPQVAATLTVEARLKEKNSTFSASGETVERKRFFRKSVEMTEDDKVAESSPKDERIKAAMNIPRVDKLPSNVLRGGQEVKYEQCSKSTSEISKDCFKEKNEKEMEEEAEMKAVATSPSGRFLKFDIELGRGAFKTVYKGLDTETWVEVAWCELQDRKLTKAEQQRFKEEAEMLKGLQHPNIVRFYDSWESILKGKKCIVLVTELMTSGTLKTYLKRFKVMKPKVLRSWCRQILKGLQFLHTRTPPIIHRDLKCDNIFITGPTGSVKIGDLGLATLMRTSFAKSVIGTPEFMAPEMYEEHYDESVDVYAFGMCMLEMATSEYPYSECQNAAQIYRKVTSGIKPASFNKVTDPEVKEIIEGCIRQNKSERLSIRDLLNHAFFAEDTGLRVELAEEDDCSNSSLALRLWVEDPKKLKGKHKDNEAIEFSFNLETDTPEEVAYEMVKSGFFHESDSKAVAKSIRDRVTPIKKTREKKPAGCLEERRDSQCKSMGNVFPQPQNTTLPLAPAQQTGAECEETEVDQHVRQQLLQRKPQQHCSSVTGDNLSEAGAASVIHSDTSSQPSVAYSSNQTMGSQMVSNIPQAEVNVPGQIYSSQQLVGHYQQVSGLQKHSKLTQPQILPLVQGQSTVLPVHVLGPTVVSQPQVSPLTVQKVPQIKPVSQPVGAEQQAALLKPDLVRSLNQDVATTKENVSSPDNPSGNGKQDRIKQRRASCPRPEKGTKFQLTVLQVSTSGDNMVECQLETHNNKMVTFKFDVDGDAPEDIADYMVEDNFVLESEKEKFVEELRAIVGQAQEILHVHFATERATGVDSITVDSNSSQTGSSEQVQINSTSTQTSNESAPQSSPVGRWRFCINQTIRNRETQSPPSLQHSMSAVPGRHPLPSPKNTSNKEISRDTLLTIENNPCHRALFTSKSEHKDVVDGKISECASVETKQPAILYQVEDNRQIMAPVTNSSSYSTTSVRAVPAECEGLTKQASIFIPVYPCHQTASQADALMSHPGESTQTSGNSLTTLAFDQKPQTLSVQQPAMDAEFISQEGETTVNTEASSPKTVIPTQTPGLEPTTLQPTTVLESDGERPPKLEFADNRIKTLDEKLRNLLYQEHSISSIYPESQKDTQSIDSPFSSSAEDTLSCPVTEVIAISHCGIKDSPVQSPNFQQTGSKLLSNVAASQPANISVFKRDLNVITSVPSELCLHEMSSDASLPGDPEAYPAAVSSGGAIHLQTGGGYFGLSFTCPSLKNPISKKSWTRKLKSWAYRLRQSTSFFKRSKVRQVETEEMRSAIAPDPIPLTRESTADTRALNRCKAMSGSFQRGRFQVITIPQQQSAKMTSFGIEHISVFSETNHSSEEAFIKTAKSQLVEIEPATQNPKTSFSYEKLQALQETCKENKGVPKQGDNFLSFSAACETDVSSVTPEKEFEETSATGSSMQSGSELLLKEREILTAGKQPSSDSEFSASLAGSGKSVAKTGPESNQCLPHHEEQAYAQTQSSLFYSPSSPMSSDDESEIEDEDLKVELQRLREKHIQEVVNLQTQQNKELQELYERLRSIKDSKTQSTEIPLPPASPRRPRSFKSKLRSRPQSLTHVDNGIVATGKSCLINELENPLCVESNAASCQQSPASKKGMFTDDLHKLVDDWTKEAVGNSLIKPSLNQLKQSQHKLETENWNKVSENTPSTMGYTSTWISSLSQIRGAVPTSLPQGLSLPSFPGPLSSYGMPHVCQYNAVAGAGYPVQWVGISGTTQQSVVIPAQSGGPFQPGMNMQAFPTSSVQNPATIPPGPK
Sequence of MEK1 (Q02750 whole entry): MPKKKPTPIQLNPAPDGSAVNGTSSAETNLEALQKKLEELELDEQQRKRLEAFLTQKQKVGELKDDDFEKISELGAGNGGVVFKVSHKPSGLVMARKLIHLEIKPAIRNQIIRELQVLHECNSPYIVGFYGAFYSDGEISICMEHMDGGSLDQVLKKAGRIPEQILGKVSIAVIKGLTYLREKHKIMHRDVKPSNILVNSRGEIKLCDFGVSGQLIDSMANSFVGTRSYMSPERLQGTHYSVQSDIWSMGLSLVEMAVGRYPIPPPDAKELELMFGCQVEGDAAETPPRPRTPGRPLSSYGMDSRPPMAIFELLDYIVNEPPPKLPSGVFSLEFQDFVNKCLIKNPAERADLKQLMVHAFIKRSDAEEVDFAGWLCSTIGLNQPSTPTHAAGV
Sequence of CK1a1 (P48729 whole entry): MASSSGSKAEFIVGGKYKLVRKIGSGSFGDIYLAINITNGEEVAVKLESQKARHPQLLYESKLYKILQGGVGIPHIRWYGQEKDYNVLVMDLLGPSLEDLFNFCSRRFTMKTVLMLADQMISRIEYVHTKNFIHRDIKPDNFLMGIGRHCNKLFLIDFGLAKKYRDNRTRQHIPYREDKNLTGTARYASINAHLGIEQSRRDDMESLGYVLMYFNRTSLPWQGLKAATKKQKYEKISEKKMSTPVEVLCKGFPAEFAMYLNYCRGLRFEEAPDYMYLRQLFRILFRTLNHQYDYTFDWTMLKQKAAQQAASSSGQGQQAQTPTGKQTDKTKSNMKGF

| Structure (SMILES) | % enzyme activity [1] [%] | remaining activity at 1 µM [2] [%] | CYP inhibition [3] [µM] | remaining activity at 1 µM [4] [%] | % enzyme activity [5] [%] | % enzyme activity at 1 μM [6] | remaining activity at 1 µM [7] [%] | remaining activity at 1 µM [8] [%] | remaining activity at 1 µM [9] [%] | % enzyme activity [10] [%] | remaining activity at 1 µM [11] [%] | remaining activity at 1 µM [12] [%] | % enzyme activity [13] [%] | remaining activity at 1 µM [14] [%] | remaining activity at 1 µM [15] [%] | % enzyme activity [16] [%] | remaining activity at 1 µM [17] [%] | remaining activity at 1 µM [18] [%] |
| --- | --- | --- | --- | --- | --- | --- | --- | --- | --- | --- | --- | --- | --- | --- | --- | --- | --- | --- |
| COc1cc(-c2cncc(-c3ccc(N4CCN(C)CC4)cc3)c2C)cc(F)c1C(N)=O [Compound 26a, 2-Fluoro-6-methoxy-4-(4-methyl-5-(4-(4-methylpiperazin-1-yl)phenyl)pyridin-3-yl)benzamide] | 103.54 | 98.1 | > 50 | 101 | 85.01 | 60.3% and 60.2% | 89.6 | 96.1 | 97.5 | 92.85 | 99.5 | 94.7 | 87.93 | 96.1 | 90.6 | 57.53 | 85.1 | 96.6 |
| COc1cc(-c2cncc(-c3ccc(N4C[C@@H](C)N(C)[C@@H](C)C4)cc3)c2C)cc(F)c1C(N)=O [Compound 26c, 2-Fluoro-6-methoxy-4-(4-methyl-5-(4-((3R,5S)-3,4,5-trimethylpiperazin-1-yl)phenyl)pyridin-3-yl)benzamide] | 103.73 | 108 | > 50 | 103 | 91.96 | 62.2% and 60.6% | 93.8 | 101 | 95.1 | 92.15 | 94.9 | 90.8 | 99.74 | 100 | 91.9 | 74.31 | 87 | 96.1 |

Source: publication PMC8213057, “Targeting ALK2: An Open Science Approach to Developing Therapeutics for the Treatment of Diffuse Intrinsic Pontine Glioma” (Journal of Medicinal Chemistry, 2020)
